For 33 molecules, IC50 results are on record in patent US8349880B2, “Bicyclic compounds for the reduction of beta-amyloid production” (Bristol-Myers Squibb Company, priority 2009, dated 2013).

Molecules are shown by their SMILES. Where two headings read alike, the source gives them in different places.

The test relates to Aβ1-42 production. The test can be described thus: Cellular assay for inhibition of Aβ1-42 production (H4 APP751 SWE clone 8.20). The class given is cell-based. To be noted: H4 APP751 SWE clone 8.20 cells, 19 h incubation. The gist of the method:
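H4 cells stably expressing APP751 with the Swedish mutation (1.5×10^4 cells/well) incubated with compound for 19 h at 37° C in DMEM with 0.0125% BSA. Secreted Aβ42 measured overnight at 4° C by HTRF-type pairing of 565 (Aβ42 neoepitope) and 26D6 (N-terminal) antibodies. IC50 from curve fit.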

Where [1] appears, read: 19 h, read-out: Activity Rating (Aβ42 cellular IC50, given as a number).
Setting [2] is: 19 h, read-out: Activity Rating (based on Aβ42 cellular IC50 values).

Regarding `Cc1ncnn1-c1ccc(Nc2nc3n(n2)CC[C@H](O)C[C@@H]3c2ccc(F)cc2)cc1F` (relative stereo) [Example 156, rel-(7R,9R)-2-(3-fluoro-4-(5-methyl-1H-1,2,4-triazol-1-yl)phenylamino)-9-(4-fluorophenyl)-6,7,8,9-tetrahydro-5H-[1,2,4]triazolo[1,5-a]azepin-7-ol 2,2,2-trifluoroacetate], the half-maximal inhibitory concentration (IC50) – broadly, the point on the concentration scale where inhibition reaches its midpoint – under setting [1] turned out to be 122 nM.
Turning to `COc1cc(Nc2nc3n(n2)CCCC[C@H]3c2ccc(Cl)cc2Cl)ccc1-n1cnc(Cl)c1` (single isomer, unassigned) [Example 20], under setting [2], the IC50 is less than 10 nM.
Still for that read-out and setting: under `Fc1ccc(C2CCCCn3nc(Nc4cc(F)c(-n5cnc(Cl)c5)c(F)c4)nc32)cc1` (stereo not drawn) [Example 48, N-(4-(4-chloro-1H-imidazol-1-yl)-3,5-difluorophenyl)-9-(4-fluorophenyl)-6,7,8,9-tetrahydro-5H-[1,2,4]triazolo[1,5-a]azepin-2-amine] stands less than 10 nM; under `COc1cc(Nc2nc3n(n2)CCCCC3c2ccc(Cl)cc2Cl)ccc1-n1cnc(Cl)c1` (stereo not drawn) [Example 19, N-(4-(4-chloro-1H-imidazol-1-yl)-3-methoxyphenyl)-9-(2,4-dichlorophenyl)-6,7,8,9-tetrahydro-5H-[1,2,4]triazolo azepin-2-amine 2,2,2-trifluoroacetate], less than 10 nM; under `COc1cc(Nc2nc3c(s2)CC2(CC3c3ccc(F)cc3)OCCO2)ccc1-n1cnc(Cl)c1` (stereo not drawn) [Example 74, N-(4-(4-chloro-1H-imidazol-1-yl)-3-methoxyphenyl)-4-(4-fluorophenyl)-5,7-dihydro-4H-spiro[benzo[d]thiazole-6,2′-[1,3]dioxolan]-2-amine], 10 to 100 nM.
For `Cc1ncnn1-c1ccc(Nc2nc3n(n2)CCCCC3c2ccc(OC(F)(F)F)cc2)cc1F` (stereo not drawn) [Example 99, N-(3-fluoro-4-(5-methyl-1H-1,2,4-triazol-1-yl)phenyl)-9-(4-(trifluoromethoxy)phenyl)-6,7,8,9-tetrahydro-5H-[1,2,4]triazolo[1,5-a]azepin-2-amine], under setting [2], the IC50 is 10 to 100 nM.
In the case of `Cc1ncn(-c2ccc(Nc3nc4n(n3)CCCC[C@@H]4c3ccc(OC(F)(F)F)c(F)c3)cc2F)n1` (single isomer, unassigned) [Example 166], the IC50 under setting [2] is less than 10 nM.
Consider `COc1cc(Nc2nc3c(s2)CC(=O)CC3c2ccc(F)cc2)ccc1-n1cnc(Cl)c1` (stereo not drawn) [Example 75, 2-(4-(4-chloro-1H-imidazol-1-yl)-3-methoxyphenylamino)-4-(4-fluorophenyl)-4,5-dihydrobenzo[d]thiazol-6(7H)-one], for which the 50% inhibitory concentration (IC50) under setting [2] fell in the range of 10 to 100 nM.
Same read-out and setting: as for `COc1cc(Nc2nc3c(s2)CCCC3Cc2ccccc2)ccc1-n1cnc(Cl)c1` (stereo not drawn) [Example 80, 4-benzyl-N-(4-(4-chloro-1H-imidazol-1-yl)-3-methoxyphenyl)-4,5,6,7-tetrahydrobenzo[d]thiazol-2-amine 2,2,2-trifluoroacetate], the figure is 100 to 1000 nM; as for `COc1cc(Nc2nc3n(n2)CCCCC3c2ccccc2F)ccc1-n1cnc(Cl)c1` (stereo not drawn) [Example 56, N-(4-(4-chloro-1H-imidazol-1-yl)-3-methoxyphenyl)-9-(2-fluorophenyl)-6,7,8,9-tetrahydro-5H-[1,2,4]triazolo[1,5-a]azepin-2-amine], less than 10 nM; as for `COc1cc(Nc2nc3n(n2)CCC(N2CCC2)CC3c2ccc(F)cc2)ccc1-n1cnc(Cl)c1` (stereo not drawn) [Example 142, 7-(azetidin-1-yl)-N-(4-(4-chloro-1H-imidazol-1-yl)-3-methoxyphenyl)-9-(4-fluorophenyl)-6,7,8,9-tetrahydro-5H-[1,2,4]triazolo[1,5-a]azepin-2-amine], 10 to 100 nM.
`COc1cc(Nc2nc3n(n2)CCCC3c2ccc(Cl)cc2Cl)ccc1-n1cnc(Cl)c1` (stereo not drawn) [Example 12, N-(4-(4-chloro-1H-imidazol-1-yl)-3-methoxyphenyl)-8-(2,4-dichlorophenyl)-5,6,7,8-tetrahydro-[1,2,4]triazolo[1,5-a]pyridin-2-amine]: the half-maximal inhibitory concentration (IC50) under setting [1] is 8 nM.
As to `COc1cc(Nc2nc3n(n2)CCCC[C@@H]3c2ccc(F)cc2)c(F)cc1-n1cnc(C)n1` (single isomer, unassigned) [Example 30], under setting [1], the IC50 worked out at 47 nM.
Turning to `COc1cc(Nc2nc3n(n2)CCC(N(C)C)CC3c2ccc(F)cc2)ccc1-n1cnc(Cl)c1` (stereo not drawn) [Example 141, N2-(4-(4-chloro-1H-imidazol-1-yl)-3-methoxyphenyl)-9-(4-fluorophenyl)-N7,N7-dimethyl-6,7,8,9-tetrahydro-5H-[1,2,4]triazolo[1,5-a]azepine-2,7-diamine], the concentration for half-maximal inhibition (IC50) under setting [1] came out at 70 nM.
Turning to `COc1cc(Nc2nc3n(n2)CCCCC3c2ccc(Br)cc2)ccc1-n1cnc(Cl)c1` (stereo not drawn) [Example 170, 9-(4-bromophenyl)-N-(4-(4-chloro-1H-imidazol-1-yl)-3-methoxyphenyl)-6,7,8,9-tetrahydro-5H-[1,2,4]triazolo[1,5-a]azepin-2-amine], the IC50 under setting [2] was less than 10 nM.
On the same count and under the same terms, under `COc1cc(Nc2nc3n(n2)CCCCC3c2cccc(Cl)c2)ccc1-n1cnc(Cl)c1` (stereo not drawn) [Example 53, N-(4-(4-chloro-1H-imidazol-1-yl)-3-methoxyphenyl)-9-(3-chlorophenyl)-6,7,8,9-tetrahydro-5H-[1,2,4]triazolo azepin-2-amine] stands less than 10 nM.
With `COc1cc(Nc2nc3n(n2)CCCC[C@@H]3c2ccc(OC(F)(F)F)cc2)ccc1-n1cnc(Cl)c1` (single isomer, unassigned) [Example 126], where the note is “read-out: Activity Rating (based on Aβ42 cellular IC50 values)”, the half-maximal inhibitory concentration (IC50) lay in the range of 10 to 100 nM.
Turning to `COc1cc(Nc2nc3n(n2)CCCCC3c2ccc(OCC(F)(F)F)cc2)c(F)cc1-n1cnc(C)n1` (stereo not drawn) [Example 116, N-(2-fluoro-5-methoxy-4-(3-methyl-1H-1,2,4-triazol-1-yl)phenyl)-9-(4-(2,2,2-trifluoroethoxy)phenyl)-6,7,8,9-tetrahydro-5H-[1,2,4]triazolo[1,5-a]azepin-2-amine], the 50% inhibitory concentration (IC50) under setting [2] lay in the range of 10 to 100 nM.
Take `COc1cc(Nc2nc3n(n2)CCCC[C@@H]3c2ccc(F)cc2)ccc1-n1cnc(Cl)n1` (single isomer, unassigned) [Example 88]: the IC50 under setting [2] lay within 10 to 100 nM.
The same measure, in the same setting: as for `Cc1ncn(-c2ccc(Nc3nc4n(n3)CC[C@@](C)(O)C[C@@H]4c3ccc(F)cc3)cc2F)n1` (relative stereo) [Example 155, rel-(7S,9R)-2-(3-fluoro-4-(3-methyl-1H-1,2,4-triazol-1-yl)phenylamino)-9-(4-fluorophenyl)-7-methyl-6,7,8,9-tetrahydro-5H-[1,2,4]triazolo[1,5-a]azepin-7-ol 2,2,2-trifluoroacetate], the figure is 10 to 100 nM; as for `Cc1ncnn1-c1ccc(Nc2nc3n(n2)CCCCC3c2ccc(OCC(F)(F)F)cc2)cc1F` (stereo not drawn) [Example 110, N-(3-fluoro-4-(5-methyl-1H-1,2,4-triazol-1-yl)phenyl)-9-(4-(2,2,2-trifluoroethoxy)phenyl)-6,7,8,9-tetrahydro-5H-[1,2,4]triazolo[1,5-a]azepin-2-amine], 10 to 100 nM; as for `Cc1ncnn1-c1ccc(Nc2nc3n(n2)CCCC[C@H]3c2ccc(OCC(F)F)cc2)cc1F` (single isomer, unassigned) [Example 120], 10 to 100 nM.
Same read-out and setting: as for `Cc1ncnn1-c1ccc(Nc2nc3n(n2)CCCC[C@H]3c2ccc(OC(F)(F)F)cc2)cc1F` (single isomer, unassigned) [Example 100], the figure is less than 10 nM.
Still for that read-out and setting: under `Cc1ncn(-c2ccc(Nc3nc4n(n3)CCCC[C@H]4c3ccc(OC(F)(F)F)c(F)c3)cc2F)n1` (single isomer, unassigned) [Example 165] stands 10 to 100 nM; under `C=C1CCn2nc(Nc3ccc(-n4cnc(Cl)c4)c(OC)c3)nc2[C@@H](c2ccc(F)cc2)C1` (single isomer, unassigned) [Example 135], 10 to 100 nM; under `Cc1ncnn1-c1ccc(Nc2nc3n(n2)CCCC[C@H]3c2ccc(OCC(F)(F)F)cc2)cc1F` (single isomer, unassigned) [Example 111], less than 10 nM.
As for `COc1cc(Nc2nc3n(n2)CCCC[C@H]3c2ccc(F)cc2F)ccc1-n1cnc(Cl)c1` (single isomer, unassigned) [Example 36], under setting [2], the IC50 is less than 10 nM.
On to `COc1cc(Nc2nc3n(n2)CC=CC[C@H]3c2ccc(F)cc2)ccc1-n1cnc(Cl)c1` (single isomer, unassigned) [Example 2], for which the IC50 under setting [1] is 9 nM.
Consider `COc1cc(Nc2nc3n(n2)CCCC[C@H]3c2ccc(OC(F)(F)F)cc2)c(F)cc1-n1cnc(C)n1` (single isomer, unassigned) [Example 176], for which the IC50 under setting [2] was less than 10 nM.
Turning to `Cc1ncn(-c2ccc(Nc3nc4n(n3)CCCC4c3ccc(F)cc3)cc2C#N)n1` (stereo not drawn) [Example 11, 5-(8-(4-fluorophenyl)-5,6,7,8-tetrahydro-[1,2,4]triazolo[1,5-a]pyridin-2-ylamino)-2-(3-methyl-1H-1,2,4-triazol-1-yl)benzonitrile, 2,2,2-trifluoroacetate], the IC50 under setting [1] came to 110 nM.
`COc1cc(Nc2nc3n(n2)CC[C@](C)(O)C[C@@H]3c2ccc(F)cc2)ccc1-n1cnc(Cl)c1` (relative stereo) [Example 147, rel-(7R,9R)-2-(4-(4-chloro-1H-imidazol-1-yl)-3-methoxyphenylamino)-9-(4-fluorophenyl)-7-methyl-6,7,8,9-tetrahydro-5H-[1,2,4]triazolo[1,5-a]azepin-7-ol 2,2,2-trifluoroacetate]: the IC50 under setting [2] is less than 10 nM.
`COc1cc(Nc2nc3n(n2)C(c2ccc(F)cc2)CCC3)ccc1-n1cnc(Cl)c1` (stereo not drawn) [Example 89, N-(4-(4-chloro-1H-imidazol-1-yl)-3-methoxyphenyl)-5-(4-fluorophenyl)-5,6,7,8-tetrahydro-[1,2,4]triazolo[1,5-a]pyridin-2-amine 2,2,2-trifluoroacetate]: the 50% inhibitory concentration (IC50) under setting [2] lay within 10 to 100 nM.
Still for that read-out and setting: as for `COc1cc(Nc2nc3n(n2)CCC(C)CC3c2ccc(F)cc2)ccc1-n1cnc(Cl)c1` (stereo not drawn) [Example 136, N-(4-(4-chloro-1H-imidazol-1-yl)-3-methoxyphenyl)-9-(4-fluorophenyl)-7-methyl-6,7,8,9-tetrahydro-5H-[1,2,4]triazolo[1,5-a]azepin-2-amine], the figure is less than 10 nM.
